We go through 1 compound from US20160067221A1, “USE OF ERGOTHIONEINE FOR INDUCING ACTIVITY OF NRF2 IN CELL” (China Medical University, priority 2014, published 2016).

Structures are written as SMILES.

The subject of the test is Nrf2. Nature of the test: Ergothioneine-induced Nrf2 nuclear translocation after kinase inhibitor pretreatment (Western blot). The format is cell-based, human. Conditions: inhibitor 2.5 μM 30 minutes, then 500 nM ergothioneine 1 hour. The protocol:
Given that the ergothioneine can activate the Nrf2 to induce the expression of the downstream antioxidant genes; this example further investigates the pathway of the Nrf2 activated by the ergothioneine.
The HaCaT cells are incubated with respective pharmacological inhibitors of p38 (SB203580; 20 μM), ERK (PD98059; 20 μM), JNK (SP600125; 20 μM), PI3K (LY294002; 20 μM), PKC (GF109203X; 2.5 μM), or ROS (NAC; 1 mM) for 30 minutes, and then incubated with 500 nM ergothioneine for 1 hour. After the incubation, nuclear extracts and cytosolic extracts are collected to observe the expression of the Nrf2 nuclear translocation. FIG. 12 illustrates that the ergothioneine induces a Nrf2-mediated antioxidant signaling pathway. The data result is represented by mean±SD values; n=3, wherein * represents ρ<0.05 compared to the control group.
Background: In western blotting, separated proteins are transferred to a membrane and probed.

For `CN(C)CCCn1cc(C2=C(c3c[nH]c4ccccc34)C(=O)NC2=O)c2ccccc21` [GF109203X], the “expression of the Nrf2 nuclear translocation” value is listed as “significantly inhibited”.
